Patent US4999366A, “Isoxazolidine-3,5-diones, pharmaceutical compositions and method of treatment” (The North Carolina Central Univ., priority 1990, dated 1991)
Read-outs that look alike come from different tables or passages of the source.

How the values were obtained:
[1] = system: serum cholesterol; assay: Serum cholesterol in normal CF1 mice (Example 10); format: in vivo, CF1 male mice; conditions: Mus musculus, 20 mg/kg/day ip
Experimental: (§1) The ten compounds listed in Table II below were tested for their hypolipidemic activity in CF1 mice.
(§2) Compounds A-J as defined above, were suspended in an aqueous 1percent carboxymethylcellulose (CMC) solution and homogenized. Each of the so prepared compounds were administered to a group of six CF1 male mice, each weighing approximately 25 grams, intraperitioneally for 16 days. Each of these compounds were provided in a dosage of 20 mg/kg/day ip. On Days 9 and 16 blood was obtained by tail vein bleeding. The blood serum so obtained was separated by centrifugation for three minutes. Serum cholesterol levels were determined by a modification of the Liebermann-Burchard reaction (Ness, Clin. Chim. Acta., Vol. 10, 229[1964]). Serum triglyceride levels were determined on Day 16 by use of the Fisher, Hycel Triglyceride Test Kit.
(§3) In addition to the above-described treated mice, an untreated control group of six mice were similarly tested on Days 9 and 16 to determine their serum cholesterol and trigylceride blood levels. Based on the results obtained for the untreated control group, the percent control, based on serum cholesterol and serum triglyceride levels of the treated mice compared to the untreated mice, was obtained. Table III reports this percent control, including standard deviation, indicating the level of confidence of these numbers.

[2] = system: serum triglyceride; assay: Serum triglyceride in normal CF1 mice (Example 10); format: in vivo, CF1 male mice; conditions: Mus musculus, 384 h, 20 mg/kg/day ip, Day 16, ± standard deviation, read-out: Serum Triglyceride, Day 16 (percent control)
Experimental: as §1, §2, §3

[3] = system: serum cholesterol; assay: Serum cholesterol in normal rats (Example 12); format: in vivo, Sprague-Dawley male rats; conditions: 20 mg/kg/day orally
Experimental: (§4) A solution of Compound D, 2-(3,4,5-trimethoxybenzoyl)-4,4-diethylisoxazolidine-3,5-dione, was suspended in an aqueous solution of 1% CMC, homogenized and administered orally to six Sprague-Dawley male rats, which each weighed approximately 350 grams. Similarly, six Sprague-Dawley male rats of approximately the same weight were administered similar volumes of the same aqueous 1% CMC solution without the active agent, Compound D, also orally. In each case, administration was by intubation needle at 20 mg/kg/day for 14 days. In addition, as a control, a similar group of six male Sprague-Dawley rats were untreated.
(§5) On Days 7 and 14, blood was obtained from each of the rats of the three groups by tail vein bleeding. The blood obtained was separated by centrifugation for three minutes. Serum cholesterol and triglyceride levels were determined in accordance with the procedure of Example 10.

[4] = system: serum cholesterol; assay: Serum cholesterol in hyperlipidemic mice on atherogenic diet (Example 11); format: in vivo, CF1 male mice; conditions: hyperlipidemic CF1 mice, 20 mg/kg/day ip, Day 14, from 375 mg %
Experimental: (§6) A group of six CF^1 male mice (about 25 g) was placed on a commercial diet (U.S. Biochemical Corporation BAsal Atherogenic Test Diet) which produced a "hyperlipidemic" state. That is, the average serum cholesterol level in the group of treated mice was raised from 122 to 375 mg % and triglyceride levels were raised from 137 to 367 mg/dl.
(§7) Upon reaching these hyperlipidemic levels, the mice were administered Compound D in a concentration of 20 mg/kg/day intraperitoneally for 14 days while continuing the diet. On Day 14, serum cholesterol and serum triglyceride levels were measured in accordance with the procedure of Example 10.

[5] = system: serum triglyceride; assay: Serum triglyceride in hyperlipidemic mice on atherogenic diet (Example 11); format: in vivo, CF1 male mice; conditions: hyperlipidemic CF1 mice, 20 mg/kg/day ip, Day 14, from 367 mg/dl
Experimental: as §6, §7

[6] = system: serum triglyceride; assay: Serum triglyceride in normal rats (Example 12); format: in vivo, Sprague-Dawley male rats; conditions: 20 mg/kg/day orally
Experimental: as §4, §5

[7] = system: plasma lipid level; conditions: rats; cited from earlier work
[8] = 216 h, Day 9, ± standard deviation, read-out: Serum Cholesterol, Day 9 (percent control)
[9] = 384 h, Day 16, ± standard deviation, read-out: Serum Cholesterol, Day 16 (percent control)

## C=C(C)N1OC(=O)C(CC)(CC)C1=O [A]
[1]; [8]
  response vs control in vivo at 20 mg/kg/day: 70 ± 7%
[1]; [9]
  response vs control in vivo at 20 mg/kg/day: 75 ± 4%
[2]
  response vs control in vivo at 20 mg/kg/day: 71 ± 6%

## C=C(c1ccccc1)N1OC(=O)C(CC)(CC)C1=O [B, 2-(1-phenylethenyl)-4,4-diethylisoxazolidine-3,5-dione]
[1]; [8]
  response vs control in vivo at 20 mg/kg/day: 71 ± 5%
[1]; [9]
  response vs control in vivo at 20 mg/kg/day: 63 ± 6%
[2]
  response vs control in vivo at 20 mg/kg/day: 71 ± 4%

## CCC1(CC)C(=O)ON(C2(N3OC(=O)C(CC)(CC)C3=O)CCCCC2)C1=O [C, 1,1-bis-[2-(4,4-diethylisoxazolidine-3,5-dione)]cyclohexane]
[1]; [8]
  response vs control in vivo at 20 mg/kg/day: 86 ± 7%
[1]; [9]
  response vs control in vivo at 20 mg/kg/day: 73 ± 7%
[2]
  response vs control in vivo at 20 mg/kg/day: 77 ± 9%

## CCC1(CC)C(=O)ON(C(=O)c2cc(OC)c(OC)c(OC)c2)C1=O [Compound D, 2-(3,4,5-trimethoxybenzoyl)-4,4-diethylisoxazolidine-3,5-dione]
[1]; [8]
  response vs control in vivo at 20 mg/kg/day: 82 ± 6%
[1]; [9]
  response vs control in vivo at 20 mg/kg/day: 51 ± 5%
[3]; Day 7
  serum cholesterol level compared to control rats, Day 7: 77%
[3]; Day 14
  serum cholesterol level compared to control rats, Day 14: 61%
[4]
  serum cholesterol level after treatment: 150 mg %
  serum cholesterol remaining, percent of pre-treatment level: 40%
[5]
  serum triglyceride level after treatment: 187 mg/dL
  serum triglyceride level remaining, percent of pre-treatment level: 51%
[6]; Day 7
  average serum triglyceride level compared to control, Day 7: 64%
[6]; Day 14
  serum triglyceride level compared to control, Day 14: 43%
[2]
  response vs control in vivo at 20 mg/kg/day: 66 ± 6%

## CCC1(CC)C(=O)ON(C(=O)c2ccccc2)C1=O [E, 2-benzoyl-4,4-diethylisoxazolidine-3,5-dione]
[1]; [8]
  response vs control in vivo at 20 mg/kg/day: 77 ± 5%
[1]; [9]
  response vs control in vivo at 20 mg/kg/day: 53 ± 6%
[2]
  response vs control in vivo at 20 mg/kg/day: 63 ± 7%

## CCC1(CC)C(=O)ON(C(C)(C)N2OC(=O)C(CC)(CC)C2=O)C1=O [F, 2,2-bis-[2-(4,4-diethylisoxazolidine-3,5-dione)]propane]
[1]; [8]
  response vs control in vivo at 20 mg/kg/day: 95 ± 4%
[1]; [9]
  response vs control in vivo at 20 mg/kg/day: 57 ± 6%
[2]
  response vs control in vivo at 20 mg/kg/day: 68 ± 8%

## CCC1(CC)C(=O)ON(C(=O)c2ccc(OC)c(OC)c2)C1=O [G, 2-(3,4-dimethoxybenzoyl)-4,4-diethylisoxazolidine-3,5-dione]
[1]; [8]
  response vs control in vivo at 20 mg/kg/day: 81%
[1]; [9]
  response vs control in vivo at 20 mg/kg/day: 77%
[2]
  response vs control in vivo at 20 mg/kg/day: 84%

## CCC1(CC)C(=O)ON(C(=O)c2ccc(OC)cc2)C1=O [H, 2-(4-methoxybenzoyl)-4,4-diethylisoxazolidine-3,5-dione]
[1]; [8]
  response vs control in vivo at 20 mg/kg/day: 89%
[1]; [9]
  response vs control in vivo at 20 mg/kg/day: 62%
[2]
  response vs control in vivo at 20 mg/kg/day: 63%

## CCC1(CC)C(=O)ON(C(=O)c2ccc(C)cc2)C1=O [I, 2-(4-methylbenzoyl)-4,4-diethylisoxazolidine-3,5-dione]
[1]; [8]
  response vs control in vivo at 20 mg/kg/day: 73%
[1]; [9]
  response vs control in vivo at 20 mg/kg/day: 46%
[2]
  response vs control in vivo at 20 mg/kg/day: 86%

## CCC1(CC)C(=O)ON(C(=O)c2ccc(Cl)cc2)C1=O [J, 2-(4-chlorobenzoyl)-4,4-diethylisoxazolidine-3,5-dione]
[1]; [8]
  response vs control in vivo at 20 mg/kg/day: 64%
[1]; [9]
  response vs control in vivo at 20 mg/kg/day: 45%
[2]
  response vs control in vivo at 20 mg/kg/day: 76%

## O=C(O)c1cc(=O)[nH]c(=O)[nH]1 [orotic acid]
[7]
  plasma lipid level: decrease the plasma lipid level in rats
